According to patent publication US8404738B2 (Hoffmann-La Roche Inc., priority 2011, dated 2013):
Like-named read-outs stand apart in the source and are kept apart here.

Experiments:
recombinant human HDAC8 = molecular target: T1, recombinant human HDAC8 (Homo sapiens, UniProt Q9BY41); test: HDAC8 inhibition: recombinant HDAC8 fluorometric assay; type: biochemical
T1 construct: made in house; host or cells: insect cells
T1 sequence (Q9BY41 1-377): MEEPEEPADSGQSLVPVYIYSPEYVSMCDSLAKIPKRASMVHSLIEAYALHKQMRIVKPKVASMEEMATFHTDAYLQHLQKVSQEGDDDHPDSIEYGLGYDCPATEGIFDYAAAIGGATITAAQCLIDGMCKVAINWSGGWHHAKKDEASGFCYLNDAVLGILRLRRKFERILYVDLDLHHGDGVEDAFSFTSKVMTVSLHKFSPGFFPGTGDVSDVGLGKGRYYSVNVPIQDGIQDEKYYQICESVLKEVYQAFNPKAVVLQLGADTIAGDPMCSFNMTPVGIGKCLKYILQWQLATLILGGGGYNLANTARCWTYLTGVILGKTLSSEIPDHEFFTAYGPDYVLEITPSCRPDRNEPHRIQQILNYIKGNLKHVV
Procedure: HDAC8 Inhibition by Novel Compounds: Recombinant HDAC8 Fluorometric Assay.
A competitive inhibitory assay of HDAC8 was carried out by using recombinant HDAC8 and a commercial substrate Ac-Arg-His-Lys-Lys(ε-acetyl)-AMC.
Compounds were tested for their ability to inhibit histone deacetylase 8 using an in vitro deacetylation assay. The enzyme source for this assay was recombinant human HDAC8 protein expressed and purified from insect cells. […] The substrate consisted of a commercial product Ac-Arg-His-Lys-Lys(ε-acetyl)-AMC (substrate is available from Cayman Chemical). […] 1 μl of half-log diluted compounds were added into wells and incubated for 15 min at rt. After that, 8 μl of substrate solution was transferred to the wells and incubated for 30 min at rt. After deacetylation of the substrate by incubation with HDAC8 enzyme, subsequent exposure to a developing reagent produced a fluorophore that was directly proportional to the level of deacetylation. […] The fluorescence signal was measured by a FlexStation3 plate reader (excitation wave length 340-360 nm; emission wave length 440-465 nm). The HDAC8 IC50 was calculated after normalization and curve fitting using XLfit4.0 software. Inhibition %=[Mean(top)−signal(sample)]×100/[Mean(top)−Mean(bottom)].

HDAC6 = molecular target: T2, HDAC6 (Homo sapiens, UniProt Q9UBN7); test: Tubulin acetylation cytoblot assay (A549 cells); type: cell-based; details: 17-18 h incubation, tubulin acetylation as marker of HDAC6 inhibition, read-out: Tub-Ac EC50
T2 construct: endogenous in cells; host or cells: A549 cells
T2 sequence (Q9UBN7 1-1215): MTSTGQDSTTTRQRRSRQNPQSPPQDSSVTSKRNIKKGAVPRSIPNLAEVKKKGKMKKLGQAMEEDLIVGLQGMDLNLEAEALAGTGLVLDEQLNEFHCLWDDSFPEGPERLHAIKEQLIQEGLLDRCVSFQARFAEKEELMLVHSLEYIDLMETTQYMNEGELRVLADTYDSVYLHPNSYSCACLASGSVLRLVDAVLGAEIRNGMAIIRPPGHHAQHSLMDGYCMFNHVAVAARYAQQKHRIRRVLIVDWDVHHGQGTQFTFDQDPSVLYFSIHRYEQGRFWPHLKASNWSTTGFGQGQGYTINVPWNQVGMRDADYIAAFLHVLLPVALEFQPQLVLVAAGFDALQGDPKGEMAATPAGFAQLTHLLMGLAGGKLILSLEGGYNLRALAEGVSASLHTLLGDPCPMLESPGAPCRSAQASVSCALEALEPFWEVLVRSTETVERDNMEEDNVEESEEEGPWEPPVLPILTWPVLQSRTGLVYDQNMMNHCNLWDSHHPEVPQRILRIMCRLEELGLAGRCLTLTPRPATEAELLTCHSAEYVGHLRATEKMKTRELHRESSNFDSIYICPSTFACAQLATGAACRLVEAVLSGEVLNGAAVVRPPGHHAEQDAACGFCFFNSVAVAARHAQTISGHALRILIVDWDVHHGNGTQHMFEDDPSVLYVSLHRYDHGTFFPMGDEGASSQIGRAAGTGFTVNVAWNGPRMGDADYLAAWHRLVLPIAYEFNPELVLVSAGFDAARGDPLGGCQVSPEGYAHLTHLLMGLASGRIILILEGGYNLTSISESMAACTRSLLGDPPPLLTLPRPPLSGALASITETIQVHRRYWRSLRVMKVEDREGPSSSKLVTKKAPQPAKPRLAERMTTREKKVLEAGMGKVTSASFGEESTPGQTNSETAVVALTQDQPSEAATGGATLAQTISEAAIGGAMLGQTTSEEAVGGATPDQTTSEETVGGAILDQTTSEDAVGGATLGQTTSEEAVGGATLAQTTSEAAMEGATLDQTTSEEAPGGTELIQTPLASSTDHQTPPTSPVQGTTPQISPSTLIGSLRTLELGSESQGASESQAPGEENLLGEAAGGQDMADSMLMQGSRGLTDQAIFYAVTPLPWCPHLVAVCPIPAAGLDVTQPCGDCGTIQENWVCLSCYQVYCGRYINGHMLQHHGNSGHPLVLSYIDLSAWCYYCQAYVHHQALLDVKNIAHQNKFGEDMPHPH
Procedure: Tubulin Acetylation Induction by Novel Compounds: Tubulin Acetylation Cytoblot Assay.
Tubulin acetylation is a PD marker for HDAC6 inhibition. The extent of tubulin acetylation represents the inhibitory effect on HDAC6.
Novel compounds were tested for their ability to inhibit HDAC6 using a cell-based deacetylation assay. Tubulin acetylation was detected by the anti-acetylated tubulin antibody (Sigma) and horse radish peroxidase (HRP) conjugated secondary antibody (KangChen Bio. Tech.). […] 20 μl of diluted compound solution was transferred to the cell culture plate and incubated for 17-18 h. After medium removal and fixation by formaldehyde (3.7% paraformaldehyde in TBS), the cells in the plates were treated with 180 μl of −20° C. MeOH and incubated for 5 min at rt. The cell lysis was incubated with 75 μl of primary anti-acetylated tubulin antibody and secondary HRP conjugated antibody solution (1:750 anti-acetylated tubulin, 1:750 HRP conjugated anti-mouse IgG in antibody dilution buffer not containing sodium azide) for 4 h at 4° C. By adding the HRP substrate, enhanced chemiluminescence (ECL) reagent (GE Healthcare) generated luminescence corresponding to the level of tubulin acetylation. So that 75 μl of ECL was added into the wells and the luminescence from each well was immediately quantified by the plate reader. Based on the luminescence reading, the Tub-Ac EC50s against HDAC6 of the tested compounds were calculated by plotting the curve with XLfit4.0 software. Inhibition %=[signal(sample)−Mean(bottom)]×100/[Mean(top)−Mean(bottom)]

[1] = system: p21 promoter-luciferase construct; test: p21 reporter gene induction (HeLa cells, p21 promoter-luciferase construct); details: for p21 RP3: relative gene level of p21 compared to MS275 at 3 μM; for p21 RP10: relative level of p21 compared to MS275 at 10 μM; for p21 RP30: relative level of p21 compared to MS275 at 30 μM;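 as to all read-outs here: transfected HeLa cells exposed to compound for 15 h, luciferase luminescence read from lysates, p21 promoter lacks p53 site, proxy for cellular HDAC1/2/3 inhibition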
[2] = recombinant human HDAC8, substrate Ac-Arg-His-Lys-Lys(ε-acetyl)-AMC, read-out: HDAC8 IC50

| Compound | IC50 (recombinant human HDAC8; [2]) [nM] | EC50 (HDAC6) [nM] | p21 RP3 [1] | p21 RP10 [1] | p21 RP30 [1] | IC50 (recombinant human HDAC8; HDAC8 IC50, recombinant human HDAC8, substrate Ac-Arg-His-Lys-Lys(ε-acetyl)-AMC) [nM] |
| --- | --- | --- | --- | --- | --- | --- |
| O=C(NO)c1ccc(NC2CC(=O)N(c3cccc(Cl)c3)C2)cc1 (centres unmarked) [Example 72, 4-[1-(3-Chloro-phenyl)-5-oxo-pyrrolidin-3-ylamino]-N-hydroxy-benzamide] | 1480 | 2340 | 0.16 | 0.14 | 0.09 | – |
| CC1(Nc2ccc(C(=O)NO)cc2)CCN(c2ccccc2)C1=O (centres unmarked) [Example 57, N-Hydroxy-4-(3-methyl-2-oxo-1-phenyl-pyrrolidin-3-ylamino)-benzamide] | 2970 | 2640 | 0.05 | 0.03 | 0.01 | – |
| O=C(NO)c1ccc(NC2CC(=O)N(Cc3ccccc3)C2)cc1 (centres unmarked) [Example 75, 4-(1-Benzyl-5-oxo-pyrrolidin-3-ylamino)-N-hydroxy-benzamide] | 860 | 4560 | 0.19 | 0.07 | 0.11 | – |
| CC1(Nc2ccc(C(=O)NO)cc2)C(=O)N(c2ccccc2)c2ccccc21 (centres unmarked) [Example 95, N-hydroxy-4-(3-methyl-2-oxo-1-phenyl-2,3-dihydro-1H-indol-3-ylamino)-benzamide] | 850 | 80 | 0.58 | 0.39 | 0.60 | – |
| CC1(Nc2ccc(C(=O)NO)cc2)C(=O)N(CCc2ccccc2)c2ccccc21 (centres unmarked) [Example 94, N-hydroxy-4-(3-methyl-2-oxo-1-phenethyl-2,3-dihydro-1H-indol-3-ylamino)-benzamide] | 980 | 150 | – | – | – | – |
| O=C(NO)c1ccc(NC2CCN(c3cc(Cl)ccc3F)C2=O)cc1 (centres unmarked) [Example 22, 4-[1-(5-Chloro-2-fluoro-phenyl)-2-oxo-pyrrolidin-3-ylamino]-N-hydroxy-benzamide] | 1930 | 1320 | 0.42 | 0.28 | 0.39 | – |
| COc1cccc(N2CC(Nc3ccc(C(=O)NO)cc3)CC2=O)c1 (centres unmarked) [Example 74, N-Hydroxy-4-[1-(3-methoxy-phenyl)-5-oxo-pyrrolidin-3-ylamino]-benzamide] | 1010 | 1840 | −0.07 | 0.07 | 0.12 | – |
| O=C(NO)c1ccc(NC2CCN(c3cccc(-n4cccc4)c3)C2=O)cc1 (centres unmarked) [Example 33, N-Hydroxy-4-[2-oxo-1-(3-pyrrol-1-yl-phenyl)-pyrrolidin-3-ylamino]-benzamide] | 970 | 680 | 0.45 | 0.41 | 0.18 | – |
| O=C(NO)c1ccc(NC2CCN(S(=O)(=O)c3ccc(F)cc3)C2)cc1 (centres unmarked) [Example 85, 4-[1-(4-Fluoro-benzenesulfonyl)-pyrrolidin-3-ylamino]-N-hydroxy-benzamide] | 1120 | 7310 | 0.35 | 0.10 | 0.05 | – |
| CC(C)(c1ccccc1)N1CC(Nc2ccc(C(=O)NO)cc2)CC1=O (centres unmarked) [Example 76, N-Hydroxy-4-[1-(1-methyl-1-phenyl-ethyl)-5-oxo-pyrrolidin-3-ylamino]-benzamide] | 1880 | 3020 | – | – | – | – |
| O=C(NO)c1ccc(NC2CCN(c3ccccc3)C2)cc1 (centres unmarked) [Example 79, N-Hydroxy-4-(1-phenyl-pyrrolidin-3-ylamino)-benzamide] | 1700 | 4540 | 0.21 | 0.09 | 0.04 | – |
| O=C(NO)c1ccc(NC2CCN(c3ccccc3)C2=O)cc1 (centres unmarked) [Example 1] | – | 5860 | 0.08 | 0.08 | 0.15 | 810 |
| CCCCc1ccc(N2CCC(Nc3ccc(C(=O)NO)cc3)C2=O)cc1 (centres unmarked) [Example 15, 4-[1-(4-Butyl-phenyl)-2-oxo-pyrrolidin-3-ylamino]-N-hydroxy-benzamide] | – | 4900 | 0.09 | 0.06 | 0.04 | – |
| O=C(NO)c1ccc(NC2CCN(c3ccc(Cl)c(Cl)c3)C2=O)cc1F (centres unmarked) [Example 68, 4-[1-(3,4-Dichloro-phenyl)-2-oxo-pyrrolidin-3-ylamino]-2-fluoro-N-hydroxy-benzamide] | – | 6670 | −0.05 | 0.02 | 0.01 | – |
